Measurements reported in patent US10633354B2, “Substituted tricyclic heterocyclic compounds” (BRISTOL-MYERS SQUIBB COMPANY, priority 2016, dated 2020).

Key:
[1] = Parent and phosphate concentrations in the BLR assay; conditions: rat, in vivo, po, Lewis rats dosed orally
circulating lymphocytes = assay: Blood Lymphocyte Reduction (BLR) assay in rodent; format: in vivo; conditions: Lewis rats dosed orally; for BL (×10^3/mm^3): n=2; for Lymp. Red.: vs vehicle group
Procedure: (§1) Blood Lymphocyte Reduction (BLR) Assay in Rodent:
Lewis rats were dosed orally with vehicle alone (polyethylene glycol 300, “PEG300”) or with test compounds. Compounds were dosed as a solution or suspension in the vehicle, adjusted to reflect the free amount of test article in the event that salt forms are utilized. […] The results were measured as a reduction in the percentage of circulating lymphocytes as compared to the vehicle treated group at the time of measurement. The results represent the average results of all animals within each treatment group (n=2).

[2] = Parent and phosphate concentrations in the BLR assay; conditions: rat, in vivo, po, Lewis rats dosed orally; remark: listed apart in the source
Procedure: as §1
Lewis rats were dosed orally with vehicle alone (polyethylene glycol 300, “PEG300”) or with test compounds. Compounds were dosed as a solution or suspension in the vehicle, adjusted to reflect the free amount of test article in the event that salt forms are utilized. Blood was drawn at 24 hr and blood lymphocyte counts were determined on an ADVIA 120 Hematology Analyzer (Siemens Healthcare Diagnostics). The results were measured as a reduction in the percentage of circulating lymphocytes as compared to the vehicle treated group at the time of measurement. The results represent the average results of all animals within each treatment group (n=2).

SMILES	concentration at 4 h [1] [µM]	concentration at 24 h [2] [µM]	BL (×10^3/mm^3) (circulating lymphocytes; 4 Hours)	Lymp. Red. (circulating lymphocytes; 4 Hours) [%]	BL (×10^3/mm^3) (circulating lymphocytes; 24 Hours)	Lymp. Red. (circulating lymphocytes; 24 Hours) [%]
CCCCOCCOc1nc2c(s1)-c1ccc([C@H]3CC[C@](N)(CO)C3)cc1CC2 [Example 7, ((1R,3S)-1-amino-3-(2-(2-butoxyethoxy)-4,5-dihydronaphtho[2,1-d]thiazol-7-yl)cyclopentyl)methanol]	0.001	0.142	1.9 ×10^3/mm^3	79	1.2 ×10^3/mm^3	87
CCCCOc1nc2c(s1)-c1ccc([C@H]3CC[C@](N)(CO)C3)cc1CC2 [Example 8, ((1R,3S)-1-amino-3-(2-butoxy-4,5-dihydronaphtho[2,1-d]thiazol-7-yl)cyclopentyl)methanol]	0.035	0.007	2.5 ×10^3/mm^3	74	2.4 ×10^3/mm^3	68
CCCCSc1nc2c(s1)-c1ccc([C@H]3CC[C@](N)(CO)C3)cc1CC2 [Example 10, ((1R,3S)-1-amino-3-(2-(butylthio)-4,5-dihydronaphtho[2,1-d]thiazol-7-yl)cyclopentyl)methanol]	0.009	0.001	1.7 ×10^3/mm^3	82	4.1 ×10^3/mm^3	48
CCCCCCOc1nc2ccc3cc([C@H]4CC[C@](N)(CO)C4)ccc3c2s1 [Example 13, ((1R,3S)-1-amino-3-(2-(hexyloxy)naphtho[2,1-d]thiazol-7-yl)cyclopentyl)methanol]	0.065	0.078	2.5 ×10^3/mm^3	73	1.4 ×10^3/mm^3	83
CCCCSc1nc2ccc3cc([C@H]4CC[C@](N)(CO)C4)ccc3c2s1 [Example 14, ((1R,3S)-1-amino-3-(2-(butylthio)naphtho[2,1-d]thiazol-7-yl)cyclopentyl)methanol]	0.015	0.008	2.6 ×10^3/mm^3	69	2.1 ×10^3/mm^3	75
CCCCCOc1nc2ccc3cc([C@H]4CC[C@](N)(CO)C4)ccc3c2s1 [Example 15, ((1R,3S)-1-amino-3-(2-(pentyloxy)naphtho[2,1-d]thiazol-7-yl)cyclopentyl)methanol]	0.031	0.017	1.7 ×10^3/mm^3	80	1.8 ×10^3/mm^3	80
CCCCOc1nc2ccc3cc([C@H]4CC[C@](N)(CO)C4)ccc3c2s1 [Example 16, ((1R,3S)-1-amino-3-(2-butoxynaphtho[2,1-d]thiazol-7-yl)cyclopentyl)methanol]	0.028	0.021	2.9 ×10^3/mm^3	65	1.9 ×10^3/mm^3	77
CCCCNc1nc2c(s1)-c1ccc([C@H]3CC[C@](N)(CO)C3)cc1CC2 [Example 17, ((1R,3S)-1-amino-3-(2-(butylamino)-4,5-dihydronaphtho[2,1-d]thiazol-7-yl)cyclopentyl)methanol]	0.033	0	5.8 ×10^3/mm^3	37	8.4 ×10^3/mm^3	0
CCCCN(C)c1nc2c(s1)-c1ccc([C@H]3CC[C@](N)(CO)C3)cc1CC2 [Example 18, ((1R,3S)-1-amino-3-(2-(butyl(methyl)amino)-4,5-dihydronaphtho[2,1-d]thiazol-7-yl)cyclopentyl)methanol]	0.113	0.018	5.9 ×10^3/mm^3	30	6.4 ×10^3/mm^3	27
Cc1ccc(-c2nc3c(s2)-c2ccc([C@H]4CC[C@](N)(CO)C4)cc2CC3)cc1 [Example 19, ((1R,3S)-1-amino-3-(2-(p-tolyl)-4,5-dihydronaphtho[2,1-d]thiazol-7-yl)cyclopentyl)methanol]	0.048	0.037	7.5 ×10^3/mm^3	9	8.2 ×10^3/mm^3	2
COc1cccc(-c2nc3c(s2)-c2ccc([C@H]4CC[C@](N)(CO)C4)cc2CC3)c1 [Example 20, ((1R,3S)-1-amino-3-(2-(3-methoxyphenyl)-4,5-dihydronaphtho[2,1-d]thiazol-7-yl)cyclopentyl)methanol]	0.097	0.068	5.7 ×10^3/mm^3	31	3.1 ×10^3/mm^3	63

Further lines, with some results ahead:

concentration at 4 h [1] [µM]	concentration at 24 h [2] [µM]	SMILES	BL (×10^3/mm^3) (circulating lymphocytes; 4 Hours)	Lymp. Red. (circulating lymphocytes; 4 Hours) [%]	BL (×10^3/mm^3) (circulating lymphocytes; 24 Hours)	Lymp. Red. (circulating lymphocytes; 24 Hours) [%]
0.066	0.111	CCCCCCCc1nc2c(s1)-c1ccc([C@H]3CC[C@](N)(CO)C3)cc1CC2 [Example 1, ((1R,3S)-1-amino-3-(2-heptyl-4,5-dihydronaphtho[2,1-d]thiazol-7-yl)cyclopentyl) methanol]	5.7 ×10^3/mm^3	40	1.8 ×10^3/mm^3	77
0.108	< 0.019	CCCc1nc2c(s1)-c1ccc([C@H]3CC[C@](N)(CO)C3)cc1CC2 [Example 2, ((1R,3S)-1-amino-3-(2-propyl-4,5-dihydronaphtho[2,1-d]thiazol-7-yl)cyclopentyl) methanol]	4.9 ×10^3/mm^3	41	8.2 ×10^3/mm^3	0
0.077	0.009	CCCCCCc1nc2c(s1)-c1ccc([C@H]3CC[C@](N)(CO)C3)cc1CC2 [Example 5, ((1R,3S)-1-amino-3-(2-hexyl-4,5-dihydronaphtho[2,1-d]thiazol-7-yl)cyclopentyl)methanol]	2.8 ×10^3/mm^3	66	4.5 ×10^3/mm^3	48
0.109	0.066	CCCCc1nc2c(s1)-c1ccc([C@H]3CC[C@](N)(CO)C3)cc1CC2 [Example 6, ((1R,3S)-1-amino-3-(2-butyl-4,5-dihydronaphtho[2,1-d]thiazol-7-yl)cyclopentyl)methanol]	3.4 ×10^3/mm^3	59	1.5 ×10^3/mm^3	82
0.072	0.031	CCCCCCOc1nc2c(s1)-c1ccc([C@H]3CC[C@](N)(CO)C3)cc1CC2 [Example 9, ((1R,3S)-1-amino-3-(2-(hexyloxy)-4,5-dihydronaphtho[2,1-d]thiazol-7-yl)cyclopentyl) methanol]	2.8 ×10^3/mm^3	66	1.4 ×10^3/mm^3	82
0.087	0.016	CCCCCSc1nc2c(s1)-c1ccc([C@H]3CC[C@](N)(CO)C3)cc1CC2 [Example 11, ((1R,3S)-1-amino-3-(2-(pentylthio)-4,5-dihydronaphtho[2,1-d]thiazol-7-yl)cyclopentyl) methanol]	2.3 ×10^3/mm^3	72	2.1 ×10^3/mm^3	76
0.081	0.029	CCCCCOc1nc2c(s1)-c1ccc([C@H]3CC[C@](N)(CO)C3)cc1CC2 [Example 12, ((1R,3S)-1-amino-3-(2-(pentyloxy)-4,5-dihydronaphtho[2,1-d]thiazol-7-yl)cyclopentyl)methanol]	2.8 ×10^3/mm^3	67	1.8 ×10^3/mm^3	80
